Experimental data from patent US10227331B2 (priority 2015, dated 2019).

What was measured:
[1] = target: IMP-1 (Serratia marcescens, UniProt P52699); test: biochemical; assay type: biochemical; details: CCF2-FA substrate, 2 hours at 25° C; read-out: IMP-1 IC50
Protocol: (§1) Enzyme Activity: Determination of IC50
(§2) The Class B enzyme activities were measured in the presence of the test inhibitor in a fluorescence assay against a commercially available substrate consisting of a cephalosporin core linking 7-hydroxycoumarin to fluorescein (CCF2-FA). […] In a 384-well microplate, the test inhibitor was incubated with the metallo-β-lactamase enzyme and the substrate for 2 hours at 25° C. […] The IC50 value was determined from semi-logarithmic plots of enzyme inhibition versus inhibitor concentration, with a curve generated using a 4-parameter fit.

[2] = target: NDM-1 (Klebsiella pneumoniae, UniProt C7C422); test: biochemical; assay type: biochemical; details: CCF2-FA substrate, 2 hours at 25° C; read-out: NDM-1 IC50
NDM-1, sequence (C7C422 whole entry, looked up, species assumed): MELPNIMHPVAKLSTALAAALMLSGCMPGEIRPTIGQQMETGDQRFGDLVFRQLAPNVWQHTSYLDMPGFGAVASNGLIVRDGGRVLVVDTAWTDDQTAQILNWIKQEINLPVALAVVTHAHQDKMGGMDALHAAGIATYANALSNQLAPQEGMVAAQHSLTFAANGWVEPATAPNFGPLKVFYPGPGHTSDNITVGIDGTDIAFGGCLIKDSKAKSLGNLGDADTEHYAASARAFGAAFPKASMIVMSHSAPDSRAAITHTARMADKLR
Protocol: as §1, §2

[3] = target: VIM-1 (Pseudomonas aeruginosa (strain ATCC 15692 / DSM 22644 / CIP 104116 / JCM 14847 / LMG 12228 / 1C / PRS 101 / PAO1), UniProt A0A0F7KYQ8); test: biochemical; details: CCF2-FA substrate, 2 hours at 25° C
Protocol: as §1, §2

[4] = test system: Escherichia coli expressing NDM-1 (CLB30005, CLB30016); assay type: cell-based; details: with imipenem 1 μg/ml, 95% inhibition of bacterial growth; for Escherichia coli MITC95: NDM-1 (CLB30016)
Protocol: (§3) Antibiotic Potentiation Activity: Determination of Synergistic Concentration
(§4) The bacterial strains tested included the clinical strains Escherichia coli expressing NDM-1 (CLB30005, CLB30016), Serratia marcescens expressing IMP-1 (CL5741), and Klebsiella pneumoniae expressing VIM-1 (IHMA599644). Inhibitor activity was measured in the presence and absence of imipenem in a 384-well microplate.
(§5) The clinical strains CLB30016, CL5741 and IHMA599644 were grown on trypticase soy agar containing 5% sheep's blood. The bacteria on agar plates were incubated at 35° C. with humidity overnight. The following day, individual colonies from each clinical strain were picked and resuspended in 5 ml saline to attain an OD600 of […], for CLB30016, CL5741 and IHMA599644, respectively. These were further diluted 1:100 into 1.1×CAMHB and used to inoculate the test wells as described below.
(§6) Imipenem in 10 mM 3-(N-morpholino)propanesulfonic acid (MOPS, pH 7) was stored in single use aliquots at −80° C. […] On the day of the assay, 4 μl of antibiotic was added to 45 ul of bacteria followed by 1 μl of test compound and mixed by pipetting and with an orbital shaker. The concentration of antibiotic used in the assay was 1 μg/ml. Microplates were covered and incubated at 35° C. for 22 hours to 24 hours. At the end of the incubation, absorbance was determined using a spectrophotometer.
(§7) For example, in general, the compounds of Examples 1-379 were determined to restore susceptibility to imipenem for one or more of the test organisms at concentrations of 100 μM or less.

[5] = test system: Klebsiella pneumoniae expressing VIM-1 (IHMA599644); assay type: cell-based; details: with imipenem 1 μg/ml, 95% inhibition of bacterial growth; for Klebsiella pneumoniae MITC95: VIM-1 (IHMA599644)
Protocol: as §3, §4, §5, §6, §7

[6] = test system: Serratia marcescens expressing IMP-1 (CL5741); assay type: cell-based; details: with imipenem 1 μg/ml, 95% inhibition of bacterial growth; for Serratia marcescens MITC95: IMP-1 (CL5741)
Protocol: as §3, §4, §5, §6, §7

[7] = test system: P. aeruginosa expressing IMP-1, efflux+ (MB9798); assay type: cell-based, Pseudomonas aeruginosa; details: for P. aeruginosa expressing IMP-1, efflux+ (MB9798) MITC95: imipenem at 2 μg/mL, in the presence of a class A, C, D serine β-lactamase inhibitor closely related to relebactam; for Efflux ratio: ratio MITC95 PA_9798/MITC95 PA_9799
From the text: (§8) The strain background is Pseudomonas aeruginosa PAO1.

[8] = test system: P. aeruginosa expressing IMP-1, efflux− (MB9799); test: Efflux: concentration of MBL inhibitor which restores susceptibility to imipenem; assay type: cell-based, Pseudomonas aeruginosa; details: imipenem at 2 μg/mL, in the presence of a class A, C, D serine β-lactamase inhibitor closely related to relebactam
From the text: as §8

IMP-1, sequence (P52699 whole entry, looked up, species assumed): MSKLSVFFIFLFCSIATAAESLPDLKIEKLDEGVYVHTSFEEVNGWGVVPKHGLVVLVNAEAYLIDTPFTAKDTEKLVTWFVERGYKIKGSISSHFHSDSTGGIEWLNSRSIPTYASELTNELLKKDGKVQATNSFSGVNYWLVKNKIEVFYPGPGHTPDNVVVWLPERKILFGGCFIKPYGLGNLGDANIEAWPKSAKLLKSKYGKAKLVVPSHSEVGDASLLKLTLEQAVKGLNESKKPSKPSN

Row | Structure (SMILES) | IC50 [1] [nM] | IC50 [2] [nM] | IC50 [3] [nM] | Escherichia coli MITC95 [4] [µM] | Klebsiella pneumoniae MITC95 [5] [µM] | Serratia marcescens MITC95 [6] [µM] | P. aeruginosa expressing IMP-1, efflux+ (MB9798) MITC95 [7] [µM] | Efflux ratio [7] | P. aeruginosa expressing IMP-1, efflux− (MB9799) MITC95 [8] [µM] | Escherichia coli expressing NDM-1 (CLB30016) MITC95 [4] [µM] | Klebsiella pneumoniae expressing VIM-1 (IHMA599644) MITC95 [5] [µM] | Serratia marcescens expressing IMP-1 (CL5741) MITC95 [6] [µM]
1 | NS(=O)(=O)c1c(S(=O)(=O)C2CN(C(=O)NC3CC3)C2)ccc(-c2ccc(NS(=O)(=O)C3CC3)cc2)c1-c1nn[nH]n1 [Example 245, 3-((4′-(Cyclopropanesulfonamido)-3-sulfamoyl-2-(2H-tetrazol-5-yl)-[1,1′-biphenyl]-4-yl)sulfonyl)-N-cyclopropylazetidine-1-carboxamide] | 0.126 | 0.386 | 0.218 | 25 | 50 | 25 | 50 | 8.00 | 6.25 |  |  | 
2 | C[C@@H](N)CS(=O)(=O)c1ccc(-c2cccc3[nH]cnc23)c(-c2nn[nH]n2)c1S(N)(=O)=O [Example 359] | 0.454 | 0.286 | 0.316 | 1.563 | 1.563 | 1.563 | 1.563 | 2.00 | 0.7813 |  |  | 
3 | NCCS(=O)(=O)c1ccc(-c2ccc3[nH]c(N)nc3c2)c(-c2nn[nH]n2)c1S(N)(=O)=O [Example 69, 3-(2-amino-1H-benzo[d]imidazol-5-yl)-6-(2-aminoethylsulfonyl)-2-(2H-tetrazol-5-yl)benzenesulfonamide] | 2.77 | 1.25 | 0.485 |  |  |  | 3.125 | 7.02 | 0.4453 | 0.25 | 0.8906 | 0.4453
4 | NCCS(=O)(=O)c1ccc(-c2cccc3[nH]c(CN)nc23)c(-c2nn[nH]n2)c1S(N)(=O)=O [Example 305, 6-((2-aminoethyl)sulfonyl)-3-(2-(aminomethyl)-1H-benzo[d]imidazol-4-yl)-2-(2H-tetrazol-5-yl)benzenesulfonamide] | 1.91 | 0.643 | 0.493 | 1.563 | 1.563 | 0.7813 | 1.563 | 2.00 | 0.7813 |  |  | 
5 | Nc1nc2c(-c3ccc(S(=O)(=O)CCN4CCOCC4=O)c(S(N)(=O)=O)c3-c3nn[nH]n3)cccc2s1 [Example 259, 3-(2-aminobenzo[d]thiazol-4-yl)-6-((2-(3-oxomorpholino)ethyl)sulfonyl)-2-(2H-tetrazol-5-yl)benzenesulfonamide] | 0.349 | 0.167 | 0.245 | 25 | 25 | 12.5 | 12.5 | 2.00 | 6.25 |  |  | 
6 | Nc1nc2cccc(-c3ccc(S(=O)(=O)C4CCNCC4)c(S(N)(=O)=O)c3-c3nn[nH]n3)c2[nH]1 [Example 42, 3-(2-amino-3H-benzo[d]imidazol-4-yl)-6-(piperidin-4-ylsulfonyl)-2-(2H-tetrazol-5-yl)benzenesulfonamide] | 1.19 | 0.177 | 0.306 |  |  |  | 0.7813 | 1.00 | 0.7813 | 0.5859 | 1.563 | 1.563
7 | NS(=O)(=O)c1c(SC2CNC2)ccc(-c2cnc3ccccn23)c1-c1nn[nH]n1 [Example 7, 6-(azetidin-3-ylthio)-3-(imidazo[1,2-a]pyridin-3-yl)-2-(2H-tetrazol-5-yl)benzenesulfonamide] | 50.4 | 7.55 | 25.6 |  |  |  | 25 | 8.00 | 3.125 | 0.3906 | 6.25 | 3.125
8 | Nc1nc2cc(-c3ccc(S(=O)(=O)C4CNC4)c(S(N)(=O)=O)c3-c3nn[nH]n3)ccc2o1 [Example 31, 3-(2-aminobenzo[d]oxazol-5-yl)-6-(azetidin-3-ylsulfonyl)-2-(2H-tetrazol-5-yl)benzenesulfonamide] | 1.37 | 0.337 | 0.373 |  |  |  | 6.25 | 4.00 | 1.563 | 1.563 | 3.125 | 1.563
9 | Cn1c(N)nc2c(-c3ccc(S(C)(=O)=O)c(S(N)(=O)=O)c3-c3nn[nH]n3)cccc21 [Example 192, 3-(2-amino-1-methyl-1H-benzo[d]imidazol-4-yl)-6-(methylsulfonyl)-2-(2H-tetrazol-5-yl)benzenesulfonamide] | 0.552 | 1 | 0.194 |  |  |  | 3.125 | 4.00 | 0.7813 | 0.7813 | 3.125 | 1.563
10 | C[C@H](N)CS(=O)(=O)c1ccc(-c2cccc3[nH]c(N)nc23)c(-c2nn[nH]n2)c1S(N)(=O)=O [Example 92, 3-(2-amino-1H-benzo[d]imidazol-4-yl)-6-((S)-2-aminopropylsulfonyl)-2-(2H-tetrazol-5-yl)benzenesulfonamide] | 0.612 | 0.141 | 0.223 |  |  |  | 0.4777 | 0.81 | 0.5893 | 0.2969 | 0.8542 | 0.6406
